Reference: US20240308996A1, “PYRIDOPYRIDINES AND DERIVATIVES THEREOF AS SELECTIVE KINASE INHIBITORS” (University of Sharjah, priority 2023, published 2024)

Tests used:
Format in all cases: cell-based
[1] = tested on: K-562; experiment: NCI-60 cell line panel: K-562; set-up: TGI: unit not given here; conditions: for IC50: Homo sapiens, K562, Leukemia; for TGI: Leukemia, total growth inhibition
Description: (§1) It was carried out at the NCI, Bethesda, MD, USA, utilizing their standard protocol.

[2] = tested on: EKVX; experiment: NCI-60 cell line panel: EKVX; conditions: Non-Small Cell Lung Cancer; for IC50: Homo sapiens
Description: as §1

[3] = tested on: HOP-62; experiment: NCI-60 cell line panel: HOP-62; conditions: Non-Small Cell Lung Cancer; for IC50: Homo sapiens; for TGI: total growth inhibition
Description: as §1

[4] = tested on: NCI-H460; experiment: NCI-60 cell line panel: NCI-H460; conditions: Non-Small Cell Lung Cancer; for IC50: Homo sapiens; for TGI: total growth inhibition
Description: as §1

[5] = tested on: NCI-H522; experiment: NCI-60 cell line panel: NCI-H522; set-up: TGI: unit not given here; conditions: Non-Small Cell Lung Cancer; for IC50: Homo sapiens; for TGI: total growth inhibition
Description: as §1

[6] = tested on: COLO 205; experiment: NCI-60 cell line panel: COLO 205; set-up: TGI: unit not given here; conditions: Colon Cancer; for TGI: total growth inhibition; for IC50: Homo sapiens
Description: as §1

[7] = tested on: HCC-2998; experiment: NCI-60 cell line panel: HCC-2998; conditions: Colon Cancer; for TGI: total growth inhibition; for IC50: Homo sapiens
Description: as §1

[8] = tested on: HCT-116; experiment: NCI-60 cell line panel: HCT-116; conditions: Colon Cancer; for TGI: total growth inhibition; for IC50: Homo sapiens
Description: as §1

[9] = tested on: HT29; experiment: NCI-60 cell line panel: HT29; conditions: for TGI: Colon Cancer, total growth inhibition; for IC50: Homo sapiens, HT-29, Colon Cancer
Description: as §1

[10] = tested on: SW-620; experiment: NCI-60 cell line panel: SW-620; conditions: Colon Cancer; for TGI: total growth inhibition; for IC50: Homo sapiens
Description: as §1

[11] = tested on: SF-295; experiment: NCI-60 cell line panel: SF-295; conditions: CNS Cancer; for TGI: total growth inhibition, unit assumed; for IC50: Homo sapiens
Description: as §1

[12] = tested on: SF-539; experiment: NCI-60 cell line panel: SF-539; conditions: CNS Cancer; for TGI: total growth inhibition; for IC50: Homo sapiens
Description: as §1

[13] = tested on: SNB-19; experiment: NCI-60 cell line panel: SNB-19; conditions: CNS Cancer; for TGI: total growth inhibition; for IC50: Homo sapiens
Description: as §1

[14] = tested on: SNB-75; experiment: NCI-60 cell line panel: SNB-75; set-up: TGI: unit not given here; conditions: CNS Cancer; for TGI: total growth inhibition; for IC50: Homo sapiens
Description: as §1

[15] = tested on: U251; experiment: NCI-60 cell line panel: U251; set-up: TGI: unit not given here; conditions: for TGI: CNS Cancer, total growth inhibition; for IC50: Homo sapiens, U-251, CNS Cancer
Description: as §1

[16] = tested on: MALME-3M; experiment: NCI-60 cell line panel: MALME-3M; conditions: Melanoma; for IC50: Homo sapiens; for TGI: total growth inhibition, in µM (unit assumed)
Description: as §1

[17] = tested on: SK-MEL-2; experiment: NCI-60 cell line panel: SK-MEL-2; set-up: TGI: unit not given here; conditions: Melanoma; for IC50: Homo sapiens; for TGI: total growth inhibition
Description: as §1

[18] = tested on: SK-MEL-28; experiment: NCI-60 cell line panel: SK-MEL-28; conditions: Melanoma; for IC50: Homo sapiens; for TGI: total growth inhibition
Description: as §1

[19] = tested on: UACC-257; experiment: NCI-60 cell line panel: UACC-257; conditions: Melanoma; for IC50: Homo sapiens; for TGI: total growth inhibition
Description: as §1

[20] = tested on: UACC-62; experiment: NCI-60 cell line panel: UACC-62; conditions: Melanoma; for IC50: Homo sapiens; for TGI: total growth inhibition
Description: as §1

[21] = tested on: IGROV1; experiment: NCI-60 cell line panel: IGROV1; conditions: for IC50: Homo sapiens, IGROV-1, Ovarian Cancer; for TGI: Ovarian Cancer, total growth inhibition
Description: as §1

[22] = tested on: OVCAR-3; experiment: NCI-60 cell line panel: OVCAR-3; conditions: Ovarian Cancer; for IC50: Homo sapiens; for TGI: total growth inhibition
Description: as §1

[23] = tested on: OVCAR-4; experiment: NCI-60 cell line panel: OVCAR-4; conditions: Ovarian Cancer; for IC50: Homo sapiens
Description: as §1

[24] = tested on: NCI/ADR-RES; experiment: NCI-60 cell line panel: NCI/ADR-RES; set-up: TGI: unit not given here; conditions: Ovarian Cancer; for IC50: Homo sapiens; for TGI: total growth inhibition
Description: as §1

[25] = tested on: 786-0; experiment: NCI-60 cell line panel: 786-0; conditions: Renal Cancer; for IC50: Homo sapiens; for TGI: total growth inhibition
Description: as §1

[26] = tested on: ACHN; experiment: NCI-60 cell line panel: ACHN; conditions: Renal Cancer; for IC50: Homo sapiens; for TGI: total growth inhibition
Description: as §1

[27] = tested on: CAKI-1; experiment: NCI-60 cell line panel: CAKI-1; set-up: TGI: unit not given here; conditions: Renal Cancer; for IC50: Homo sapiens; for TGI: total growth inhibition
Description: as §1

[28] = tested on: SN12C; experiment: NCI-60 cell line panel: SN12C; conditions: Renal Cancer; for IC50: Homo sapiens; for TGI: total growth inhibition
Description: as §1

[29] = tested on: TK-10; experiment: NCI-60 cell line panel: TK-10; conditions: Renal Cancer; for IC50: Homo sapiens; for TGI: total growth inhibition
Description: as §1

[30] = tested on: MCF7; experiment: NCI-60 cell line panel: MCF7; conditions: Breast Cancer; for TGI: total growth inhibition; for IC50: Homo sapiens
Description: as §1

[31] = tested on: MDA-MB-231/ATCC; experiment: NCI-60 cell line panel: MDA-MB-231/ATCC; conditions: Breast Cancer; for TGI: total growth inhibition; for IC50: Homo sapiens
Description: as §1

[32] = tested on: HS 578T; experiment: NCI-60 cell line panel: HS 578T; conditions: for TGI: Breast Cancer, HS 578T, total growth inhibition; for IC50: Homo sapiens, Hs-578T
Description: as §1

[33] = tested on: BT-549; experiment: NCI-60 cell line panel: BT-549; conditions: Breast Cancer; for TGI: total growth inhibition; for IC50: Homo sapiens
Description: as §1

[34] = total growth inhibition, in µM (unit assumed)

`CNC(=O)c1cc(-c2ccc(NC(=O)Nc3ccc(N4CCN(C)CC4)c(C(F)(F)F)c3)cc2)nc2cccnc12` [Compound 13b, N-Methyl-2-(4-(3-(4-(4-methylpiperazin-1-yl)-3-(trifluoromethyl)phenyl)ureido)phenyl)-1,5-naphthyridine-4-carboxamide] gave an IC50 [1] of 2.12 µM, a TGI [1] of 5.35 and an IC50 [2] of 17.9 µM. It also gave a TGI [2, 34] of 33.9, an IC50 [3] of 16.4 µM and a TGI [3] of 32.2 µM. The IC50 [4] was 3.19 µM, the TGI [4] was 10.2 µM and the IC50 [5] was 16.5 µM. The TGI [5] was 31.1, the TGI [6] was 32.8 and the IC50 [6] was 16.8 µM. It also gave a TGI [7] of 34.6 µM, an IC50 [7] of 18 µM and a TGI [8] of 75.6 µM. For the same compound, the IC50 [8] was 4.09 µM, the TGI [9] was 4.19 µM and the IC50 [9] was 1.92 µM. The TGI [10] was 4.62 µM, the IC50 [10] was 2.11 µM and the TGI [11] was 36.9 µM. It also gave an IC50 [11] of 18 µM, a TGI [12] of 26.5 µM and an IC50 [12] of 13.6 µM. The TGI [13] was 33.2 µM, the IC50 [13] was 16.8 µM and the TGI [14] was 28.4. For the same compound, the IC50 [14] was 14.9 µM, the TGI [15] was 14.7 and the IC50 [15] was 3.43 µM. It also gave an IC50 [16] of 1.68 µM, a TGI [16] of 3.21 and an IC50 [17] of no less than 100 µM. For the same compound, the TGI [17] was 100, the IC50 [18] was 1.67 µM and the TGI [18] was 3.11 µM. The IC50 [19] was 15.3 µM, the TGI [19] was 28.8 µM and the IC50 [20] was 18.4 µM. It also gave a TGI [20] of 33.9 µM, an IC50 [21] of 17.7 µM and a TGI [21] of 36.6 µM. For the same compound, the IC50 [22] was 9.59 µM, the TGI [22] was 25.8 µM and the IC50 [23] was 15.7 µM. For the same compound, the TGI [23, 34] was 31.6, the IC50 [24] was 14.2 µM and the TGI [24] was 45.4. For the same compound, the IC50 [25] was 1.81 µM, the TGI [25] was 3.52 µM and the IC50 [26] was 15.5 µM. For the same compound, the TGI [26] was 28.9 µM, the IC50 [27] was 16.1 µM and the TGI [27] was 29.6. For the same compound, the IC50 [28] was 16.7 µM, the TGI [28] was 34.7 µM and the IC50 [29] was 18.5 µM. The TGI [29] was 33.2 µM, the TGI [30] was 3.45 µM and the IC50 [30] was 1.67 µM. The TGI [31] was 38.1 µM, the IC50 [31] was 17.5 µM and the TGI [32] was 38.9 µM. The IC50 [32] was 15 µM, the TGI [33] was 35.3 µM and the IC50 [33] was 16.5 µM.
For `CCN1CCN(c2ccc(NC(=O)Nc3ccc(-c4cc(C(=O)NC)c5ncccc5n4)cc3)cc2C(F)(F)F)CC1` [Compound 13c, 2-(4-(3-(4-(4-Ethylpiperazin-1-yl)-3-(trifluoromethyl)phenyl)ureido)phenyl)-N-methyl-1,5-naphthyridine-4-carboxamide], the IC50 [1] was 0.66 µM, the TGI [1] was greater than 18.0 and the IC50 [2] was 2.94 µM. The IC50 [3] was 2.79 µM, the TGI [3] was 5.41 µM and the IC50 [4] was 0.66 µM. The TGI [4] was 2.93 µM, the IC50 [5] was 3.23 µM and the TGI [5] was 6.40. The TGI [6] was 14.20, the IC50 [6] was 4.15 µM and the TGI [7] was 5.31 µM. The IC50 [7] was 2.83 µM, the TGI [8] was 4.83 µM and the IC50 [8] was 1.12 µM. It also gave a TGI [9] of 2.11 µM, an IC50 [9] of 0.53 µM and a TGI [10] of 0.62 µM. The IC50 [10] was 0.31 µM, the TGI [11] was 4.47 µM and the IC50 [11] was 2.06 µM. It also gave a TGI [12] of 4.57 µM, an IC50 [12] of 2.3 µM and a TGI [13] of 5.48 µM. The IC50 [13] was 2.97 µM, the TGI [14] was 3.82 and the IC50 [14] was 0.84 µM. The TGI [15] was 5.53, the IC50 [15] was 2.69 µM and the IC50 [16] was 0.29 µM. For the same compound, the TGI [16] was 0.53, the IC50 [17] was 9.87 µM and the TGI [17] was greater than 18.0. It also gave an IC50 [18] of 0.32 µM, a TGI [18] of 0.58 µM and an IC50 [19] of 3.05 µM. It also gave a TGI [19] of 5.99 µM, an IC50 [20] of 3.06 µM and a TGI [20] of 5.66 µM. The IC50 [21] was 3.01 µM, the TGI [21] was 5.61 µM and the IC50 [22] was 2.54 µM. For the same compound, the TGI [22] was 5.06 µM, the IC50 [23] was 2.63 µM and the IC50 [24] was 1.78 µM. For the same compound, the TGI [24] was 8.09, the IC50 [25] was 0.3 µM and the TGI [25] was 0.58 µM. It also gave an IC50 [26] of 2.39 µM, a TGI [26] of 4.73 µM and an IC50 [27] of 3.01 µM. For the same compound, the TGI [27] was 5.60, the IC50 [28] was 2.77 µM and the TGI [28] was 5.3 µM. It also gave an IC50 [29] of 3.86 µM, a TGI [29] of 6.63 µM and a TGI [30] of 0.61 µM. For the same compound, the IC50 [30] was 0.29 µM, the TGI [31] was 5.25 µM and the IC50 [31] was 2.78 µM. For the same compound, the TGI [32] was 6.88 µM, the IC50 [32] was 2.39 µM and the TGI [33] was 5.67 µM. For the same compound, the IC50 [33] was 2.78 µM.
